Values quoted from earlier work in patent publication US20230287038A1, “PURIFIED SAPONINS AND CHROMATOGRAPHIC PROCESS FOR PURIFICATION OF SAME” (ACCESS TO ADVANCED HEALTH INSTITUTE, priority 2020, published 2023).

Legend:
[1] = reversed-phase chromatography fractions of saponin extract
[2] = tested on: antigens bovine serum albumin and cytochrome b5; details: mice
[3] = aqueous solution
[4] = tested on: unconjugated bacterial polysaccharides; details: including unconjugated bacterial polysaccharides

Substance | adjuvant activity [1] | antibody response to bovine serum albumin and cytochrome b5 [2] | pH at which hydrolysis of the fatty acyl ester bond (de-acylation) is minimized [3] | antibody response to T-independent antigens [4]
QS-17 | identified with adjuvant activity | stimulate potent antibody responses | – | –
QS-18 | identified with adjuvant activity | stimulate potent antibody responses | – | –
QS-21 | identified with adjuvant activity | stimulate potent antibody responses | ~5.5 | enhance antibody responses
